Data on twelve compounds can be found in publication PMC10866962, “Molecular docking of bioactive compounds extracted and purified from selected medicinal plant species against covid-19 proteins and in vitro evaluation” (Scientific Reports, 2024).

The zone of inhibition is the size of the clear area around the sample on an inoculated plate.

In one data set the test system is S. aureus. As to the kind of experiment: Agar well diffusion method. As to conditions: for zone of inhibition: S. aureus, compound solution 0.6 mg/mL, 40 μL per well, 24 h at 37 °C. The format is cell-based. Here is the method:
(§1) Allowed it to solidify for 15 min. […] The experiment was run in triplicates.
Background: A growth-free zone around the sample is the usual read-out of agar diffusion tests.

The nature of data set [1]: DPPH free radical scavenging assay. As to conditions: for IC50 in DPPH assay: calculated by linear regression equation; for antioxidant potential (free radical scavenging) in DPPH assay: at 200 µg/mL.
Experimental: The DPPH assay was performed according to the protocol of Ghasemi et al.[40] with little modifications. For DPPH solution, 3 mg of DPPH powder was dissolved in 100 mL methanol. […] Different serial dilutions (25, 50, 100, and 200 μg/mL) were prepared. The 3 mL DPPH methanolic solution was added to 400 μL compounds methanolic solution. The mixture was continuously shaken and stored at room temperature under shade for exactly 30 min. The absorbance of reaction mixture was measured at 515 nm spectrophotometrically. […] The experiment was repeated three times and percentage inhibition was calculated as follows.
Data set [2] in a line: ABTS free radical scavenging assay. The arrangement: IC50 values in ABTS assay (Table 2): unit not given beside the values. As to conditions: for free radical scavenging potential in ABTS assay: at 200 µg/mL; for IC50 value in ABTS assay / IC50 values in ABTS assay (Table 2): calculated by linear regression equation; for IC50 values in ABTS assay (Table 2): unit not given.
In the next data set the test system is brine shrimp nauplii. As to the kind of experiment: Brine shrimp lethality assay (BSLA). As to conditions: 24 h; for mortality at 200 µg/mL: read-out: mortality rate / cytotoxic effect in brine shrimp lethality assay; for mortality rate / cytotoxic effect in brine shrimp lethality assay: at highest 200 µg/mL concentration.
For another data set, the system named is Xanthomonas. As to the kind of experiment: Agar well diffusion method. The class given is cell-based. As to conditions: for zone of inhibition: compound solution 0.6 mg/mL, 40 μL per well, 24 h at 37 °C.
The subject of another data set is E. coli. The data set can be described thus: Agar well diffusion method. The class given is cell-based, Escherichia coli. As to conditions: compound solution 0.6 mg/mL, 40 μL per well, 24 h at 37 °C. Here is the method: as §1
For another data set, the system named is P. aeruginosa. As to the kind of experiment: Agar well diffusion method. The class given is cell-based. Particulars: compound solution 0.6 mg/mL, 40 μL per well, 24 h at 37 °C. As to the method: as §1
Another data set has as its system Salmonella. As to the kind of experiment: Agar well diffusion method. The class given is cell-based. As to conditions: compound solution 0.6 mg/mL, 40 μL per well, 24 h at 37 °C. As to the method: as §1
Another data set relates to Klebsiella pneumoniae. As to the kind of experiment: Agar well diffusion method. Particulars: for zone of inhibition: compound solution 0.6 mg/mL, 40 μL per well, 24 h at 37 °C; for zone of inhibition at 600 µg/mL: 24 h.

In brackets after ≈: the same amount, converted by molar mass.

Experimental for Klebsiella pneumoniae: (§2) Antibacterial activity of compounds was determined by agar well diffusion method[42]. Antibacterial activity of different compounds was tested against seven clinical pathogens (Klebsiella pneumonia, Escherichia coli, Xanthomonas, S. aureus, Salmonella, P. aeruginosa and S. epidermitis). The nutrient agar medium was prepared by dissolving 6 g agar nutrient powder in 250 mL distilled water. The media was autoclaved and poured into pre-labeled petri plates under sterile condition. Then rinsed these plates with bacterial suspension before solidification. Allowed it to solidify for 15 min. Compound solution of 0.6 mg/mL was used. Cefixime with 1 mg/1 mL was used as positive control whereas DMSO was used as negative control. After solidification made wells of 6 mm using sterile cork borer. Each well was sealed with 20 μL of agar. After sealing 40 μL of each compound solution was added in well. The petri plates were sealed by para-film and kept in incubator for 24 h at 37 °C. The experiment was run in triplicates. The zone of inhibition of bacterial growth was measured with scale in mm.
Experimental for Xanthomonas: as §2

In turn, `O[C@H]1CCN2Cc3ccccc3N=C12` [Vasicine] had a zone of inhibition at 600 µg/mL with S. aureus (Staphylococcus aureus, 24 h) of 22 mm. Besides, in [1], the “IC50 in DPPH assay” value was 137.7 µg/mL (≈ 732 µM). For the same compound, in data set [2], the “free radical scavenging potential in ABTS assay” value came out at 69%, the “IC50 value in ABTS assay” value was 114.82 µg/mL (≈ 610 µM) and the “IC50 values in ABTS assay (Table 2)” value is 114.8. In addition, in the data set with brine shrimp nauplii, the mortality at 200 µg/mL stood at 55%.
In the case of `COc1ccc2c(c1)[nH]c1c(C)nccc12` [Harmine], in the data set with brine shrimp nauplii, the mortality at 200 µg/mL is 65%.
In the case of `O=C(c1ccc(O)cc1)c1c(O)cc(O)c([C@@H]2O[C@H](CO)[C@@H](O)[C@H](O)[C@H]2O)c1O` [Irriflophenone-3-C-β-D-glucopyranoside], the zone of inhibition was 19 mm in the data set on Xanthomonas; 34 mm in the data set on E. coli; 8 mm with P. aeruginosa; 28 mm in the data set on S. aureus; 31 mm in the data set with Salmonella; 30 mm in the data set on Klebsiella pneumoniae. Besides, the “IC50 in DPPH assay” value in data set [1] is recorded as 125 µg/mL (≈ 306 µM). For the same compound, the “free radical scavenging potential in ABTS assay” value in [2] came to 71%. In addition, in data set [2], the “IC50 value in ABTS assay” value is given as 112.63 µg/mL (≈ 276 µM). Also, the “IC50 values in ABTS assay (Table 2)” value in data set [2] was 112.6. For the same compound, the “mortality rate / cytotoxic effect in brine shrimp lethality assay” value with brine shrimp nauplii is reported as 65%.
For `O=c1c(O[C@@H]2O[C@H](CO)[C@@H](O)[C@H](O)[C@H]2O)c(-c2ccc(O)cc2)oc2cc(O)cc(O)c12` [Astragalin], the zone of inhibition at 600 µg/mL in the data set on Klebsiella pneumoniae was found to be 26 mm. For the same compound, the “IC50 in DPPH assay” value in [1] is recorded as 100.9 µg/mL (≈ 225 µM). Further, in data set [2], the “free radical scavenging potential in ABTS assay” value is 78% and the “IC50 values in ABTS assay (Table 2)” value is reported as 49.41. In addition, the mortality at 200 µg/mL in the data set on brine shrimp nauplii turned out to be 55%.
In turn, “Quercitin-3-O rhamnoside [Quercitin-3-O-rhamnoside]” came in with a zone of inhibition in the data set with Klebsiella pneumoniae of 22 mm. The “IC50 in DPPH assay” value is recorded as 185.27 µg/mL in [1] and 185.3 µg/mL in data set [1] (listed as Quercetin-3-O- rahmnoside).
On to `O=c1c2ccccc2nc2n1CC[C@@H]2O` [PH-HM 17, vasicinone], for which the zone of inhibition in the data set on Xanthomonas is reported as 22 mm. In data set [1], the “IC50 in DPPH assay” value is recorded as 124.9 µg/mL (≈ 618 µM). Also, in data set [2], the “IC50 values in ABTS assay (Table 2)” value is on record as 101.6.
Take `CN1CCC[C@H]1c1cccnc1` [Nicotine, reference compound]: in the data set with brine shrimp nauplii, the “LD50 value in brine shrimp lethality assay” value came to 30.69 µg/mL and the mortality at 200 µg/mL was 100%.
In the data set with P. aeruginosa, `O=c1c2cc(O)c(O)cc2oc2c([C@@H]3O[C@H](CO)[C@@H](O)[C@H](O)[C@H]3O)c(O)cc(O)c12` [Isomangiferrin] came in with a zone of inhibition of 5 mm. The zone of inhibition in the data set on S. aureus amounted to 32 mm. The compound also yielded a zone of inhibition in the data set on Klebsiella pneumoniae of 28 mm. In data set [1], the “antioxidant potential (free radical scavenging) in DPPH assay” value was 78.32% and the “IC50 in DPPH assay” value is recorded as 93.86 µg/mL (≈ 222 µM). Besides, in data set [1] (listed as isomangiferrin), the “IC50 in DPPH assay” value was 93.85 µg/mL (≈ 222 µM). Further, in data set [2], the “free radical scavenging potential in ABTS assay” value amounted to 62%, the “IC50 value in ABTS assay” value is listed as 124.19 µg/mL (≈ 294 µM) and the “IC50 values in ABTS assay (Table 2)” value was 124.2. Further, the “mortality rate / cytotoxic effect in brine shrimp lethality assay” value in the data set with brine shrimp nauplii is listed as 55%.
For `O=c1c2cc(O)c(O)cc2oc2cc(O)c([C@@H]3O[C@H](CO)[C@@H](O)[C@H](O)[C@H]3O)c(O)c12` [Mangiferrin], the zone of inhibition at 600 µg/mL with E. coli (Escherichia coli) is 15 mm; in the data set on P. aeruginosa (Pseudomonas aeruginosa), 10 mm; with Salmonella it was 28 mm; in the data set on Klebsiella pneumoniae it was 32 mm. Also, the “IC50 in DPPH assay” value in data set [1] is 110.4 µg/mL (≈ 261 µM). Moreover, the “free radical scavenging potential in ABTS assay” value in [2] is recorded as 73%. Moreover, the “IC50 value in ABTS assay” value in [2] is 110.33 µg/mL (≈ 261 µM). In addition, the “IC50 values in ABTS assay (Table 2)” value in [2] is on record as 110.3. Also, in the data set on brine shrimp nauplii, the mortality at 200 µg/mL was 50%.
The compound `COc1ccc2c3c([nH]c2c1)C(C)=NCC3` [Harmaline] returned a zone of inhibition at 600 µg/mL with Xanthomonas (24 h) of 23 mm. Also, in data set [1], the “IC50 in DPPH assay” value was 94.84 µg/mL (≈ 443 µM). For the same compound, in data set [2], the “free radical scavenging potential in ABTS assay” value is recorded as 80.71%, the “IC50 value in ABTS assay” value was 15.79 µg/mL (≈ 73.7 µM) and the “IC50 values in ABTS assay (Table 2)” value is listed as 15.79. Also, the mortality at 200 µg/mL with brine shrimp nauplii was determined as 80%.
Regarding `O=C1O[C@H]([C@@H](O)CO)C(O)=C1O` [Ascorbic acid, reference compound], the “IC50 in DPPH assay” value in [1] was 97.065 µg/mL (≈ 551 µM). In addition, in data set [2], the “free radical scavenging potential in ABTS assay” value came out at 90%, the “IC50 value in ABTS assay” value is on record as 14.77 µg/mL (≈ 83.9 µM) and the “IC50 values in ABTS assay (Table 2)” value was 14.77.
For the compound `O=C(/C=C/c1ccc(O)cc1)OC[C@H]1O[C@@H](Oc2c(-c3ccc(O)cc3)oc3cc(O)cc(O)c3c2=O)[C@H](O)[C@@H](O)[C@@H]1O` [Tiliroside], the zone of inhibition at 600 µg/mL with Klebsiella pneumoniae was 24 mm. In addition, in [1], the “antioxidant potential (free radical scavenging) in DPPH assay” value is 77.77% and the “IC50 in DPPH assay” value is listed as 78.77 µg/mL (≈ 132 µM). In data set [1] (listed as tiliroside), the “IC50 in DPPH assay” value was 78.77 µg/mL (≈ 132 µM). In addition, in [2], the “free radical scavenging potential in ABTS assay” value is given as 70%, the “IC50 value in ABTS assay” value is listed as 101.64 µg/mL (≈ 171 µM) and the “IC50 values in ABTS assay (Table 2)” value is recorded as 67.53. Further, in the data set on brine shrimp nauplii, the “LD50 value in brine shrimp lethality assay” value is reported as 73.59 µg/mL and the mortality at 200 µg/mL was 95%.
